The results in this text go back to ChEMBL document CHEMBL1201862, “PubChem BioAssay data set” (2004).

The target in one experiment is T1, Cytochrome P450 1A2 (Homo sapiens, UniProt P05177).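 Note: PubChem cytochrome P450 panel assay, CYP1A2 panel member.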
T1 sequence (P05177 whole entry): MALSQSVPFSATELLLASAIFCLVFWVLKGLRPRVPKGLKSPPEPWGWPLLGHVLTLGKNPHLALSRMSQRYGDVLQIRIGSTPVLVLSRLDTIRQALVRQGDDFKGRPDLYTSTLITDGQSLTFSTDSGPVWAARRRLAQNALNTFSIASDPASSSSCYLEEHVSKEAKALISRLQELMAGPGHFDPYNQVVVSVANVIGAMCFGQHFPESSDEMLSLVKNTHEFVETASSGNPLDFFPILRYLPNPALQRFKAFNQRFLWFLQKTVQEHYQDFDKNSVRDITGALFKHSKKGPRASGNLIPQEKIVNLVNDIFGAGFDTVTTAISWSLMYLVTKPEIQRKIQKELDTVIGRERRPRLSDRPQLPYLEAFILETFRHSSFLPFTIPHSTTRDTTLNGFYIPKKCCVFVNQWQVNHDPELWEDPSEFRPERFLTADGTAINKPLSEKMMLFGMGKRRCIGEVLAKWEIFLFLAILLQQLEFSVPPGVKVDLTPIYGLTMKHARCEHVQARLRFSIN

For a further experiment, the system named is INS1. Description: beta cell apoptosis inhibitors, cytokine rescue, dose response, luminescence, retest (AID 449756).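 Note: cell death triggered by IL-1 beta plus TNF-alpha plus IFN-gamma mixture; protective hits raise ATP signal compared with cytokine alone wells.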 In kind it is functional, cell-based. As to conditions: Rattus norvegicus.
The nature of experiment [1]: Luminescence Cell-Based Dose Confirmation HTS to Identify Inhibitors of Platelet Dense Granule Release. [Related pubchem assays: 1663 (Primary HTS), 1678 (Summary of Project)]. In kind it is functional.
Experiment [2] has as its target Luciferin 4-monooxygenase (Photinus pyralis, UniProt P08659). Description: firefly luciferase enzyme inhibitors, dose response, biochemical, luminescence (AID 1891).
Experiment [3] in a line: Luminescence Cell-Based Dose Retest to Confirm Inhibitors of Cancer Stem Cells. [Related pubchem assays (depositor defined):AID2717, AID2721]. In kind it is functional. The note with it: Homo sapiens.
Experiment [4] concerns the target T2, Rac GTPase-activating protein 1 (Homo sapiens, UniProt Q9H0H5).
T2 sequence (Q9H0H5 whole entry): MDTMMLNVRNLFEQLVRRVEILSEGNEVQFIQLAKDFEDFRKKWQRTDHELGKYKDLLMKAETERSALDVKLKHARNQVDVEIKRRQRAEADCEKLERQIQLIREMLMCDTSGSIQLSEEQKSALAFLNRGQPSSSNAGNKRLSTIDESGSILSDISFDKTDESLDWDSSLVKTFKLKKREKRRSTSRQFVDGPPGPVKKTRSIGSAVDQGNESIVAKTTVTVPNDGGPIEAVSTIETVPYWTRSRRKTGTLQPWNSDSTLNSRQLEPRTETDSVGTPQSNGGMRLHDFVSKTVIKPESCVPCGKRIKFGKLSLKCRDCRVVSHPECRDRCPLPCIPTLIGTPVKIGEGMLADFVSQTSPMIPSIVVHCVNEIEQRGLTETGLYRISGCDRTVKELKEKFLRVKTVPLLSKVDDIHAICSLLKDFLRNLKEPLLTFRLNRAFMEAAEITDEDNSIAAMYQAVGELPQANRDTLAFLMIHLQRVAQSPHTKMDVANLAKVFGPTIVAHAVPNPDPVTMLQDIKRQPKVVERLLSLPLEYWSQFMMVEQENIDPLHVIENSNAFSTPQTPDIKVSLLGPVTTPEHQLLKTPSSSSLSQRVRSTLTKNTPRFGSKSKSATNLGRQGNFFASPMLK
Description: MgcRacGAP GTPase-activating activity inhibitors, confirmation, biochemical, ADP Hunter fluorescence, primary and confirmatory (AID 624330). The format is functional.

Experiment [5] in a line: inhibitors of intracellular T. cruzi replication, confirmation, NIH3T3 host cells, beta-gal luminescence (AID 2044).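 Note: intracellular parasites grown in NIH/3T3 mouse fibroblasts as host cells; luminescent beta-galactosidase reporter signal from transgenic T. cruzi replicating inside host cells; inhibitors lower the luminescence signal.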 The format is functional, cell-based.
Experiment [6] is described as follows: cytotoxicity toward NIH3T3 fibroblasts, dose response, counter-screen, cell-based, ATP luminescence, mouse fibroblasts (AID 2010).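 Note: cells exposed to compound for about 90 hours before reading.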 The format is functional.
The next experiment has as its target Cytochrome P450 3A4 (Homo sapiens, UniProt P08684).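 Note: CYP3A4 tested as one member of a cytochrome P450 panel screen.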
In another experiment the target is Cytochrome P450 2C19 (Homo sapiens, UniProt P33261). In words: Cytochrome panel assay with activity outcomes. Panel member name: p450-cyp2c19 Compounds with AC50 equal or less than 10 uM are considered active. In kind it is functional. As to conditions: read-out: AC50.
Cytochrome P450 2C19, sequence (P33261 whole entry): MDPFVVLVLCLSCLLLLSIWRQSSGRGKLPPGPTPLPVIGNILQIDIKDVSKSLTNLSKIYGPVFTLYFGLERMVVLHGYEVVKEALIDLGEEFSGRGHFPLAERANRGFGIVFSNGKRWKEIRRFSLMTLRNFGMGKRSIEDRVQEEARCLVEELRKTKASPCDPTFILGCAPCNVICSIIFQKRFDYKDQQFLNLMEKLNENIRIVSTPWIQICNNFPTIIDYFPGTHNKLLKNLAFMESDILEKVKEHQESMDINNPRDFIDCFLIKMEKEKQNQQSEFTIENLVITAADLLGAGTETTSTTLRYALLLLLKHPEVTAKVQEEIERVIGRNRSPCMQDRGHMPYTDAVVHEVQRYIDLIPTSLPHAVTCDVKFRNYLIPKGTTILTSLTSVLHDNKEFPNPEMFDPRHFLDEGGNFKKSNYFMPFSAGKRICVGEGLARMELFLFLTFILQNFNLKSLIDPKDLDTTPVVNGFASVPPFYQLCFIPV
A further experiment has as its target Cytochrome P450 2C9 (Homo sapiens, UniProt P11712).
Experiment [7] can be described thus: HEp-2 cell cytotoxicity, dose response, cytotoxicity control for RSV inhibitor project, HTS (AID 2410). In kind it is functional. The note with it: human respiratory syncytial virus.
Experiment [8] can be described thus: Luminescence Cell-Based Dose Response HTS to Identify Activators of Luciferase Translation or Activity in H4 […] Cells. [Related pubchem assays: 1829 (Project Summary), 1814 (Primary HTS)]. In kind it is functional.
The test system of the next experiment is H4. In words: Luminescence Cell-Based Dose Response HTS to Identify Activators of 5'UTR Stem-Loop Driven Prion Protein mRNA Translation in H4 Neuroglioblastoma Cells. [Related pubchem assays: 1829 (Project Summary), 1814 (Primary HTS)]. In kind it is functional. As to conditions: Homo sapiens.
Experiment [9] can be described thus: Luminescence Cell-Based Dose Confirmation HTS to Identify Activators of 5'UTR Stem-Loop Driven Alpha-Synuclein mRNA Translation in H4 Neuroglioblastoma Cells. [Related pubchem assays: 1829 (Project Summary), 1814 (Primary HTS)]. The format is functional.

A word on the AC50: it is the midpoint of the concentration-response curve, whichever way the signal moves. By EC50 is commonly meant the concentration that produces a half-maximal response. As a reminder, the IC50 is the concentration at which inhibition is half-maximal. Usually CC50 stands for the concentration giving 50% cytotoxicity.

The source made the active and inactive calls.

Cytochrome P450 3A4, sequence (P08684 whole entry): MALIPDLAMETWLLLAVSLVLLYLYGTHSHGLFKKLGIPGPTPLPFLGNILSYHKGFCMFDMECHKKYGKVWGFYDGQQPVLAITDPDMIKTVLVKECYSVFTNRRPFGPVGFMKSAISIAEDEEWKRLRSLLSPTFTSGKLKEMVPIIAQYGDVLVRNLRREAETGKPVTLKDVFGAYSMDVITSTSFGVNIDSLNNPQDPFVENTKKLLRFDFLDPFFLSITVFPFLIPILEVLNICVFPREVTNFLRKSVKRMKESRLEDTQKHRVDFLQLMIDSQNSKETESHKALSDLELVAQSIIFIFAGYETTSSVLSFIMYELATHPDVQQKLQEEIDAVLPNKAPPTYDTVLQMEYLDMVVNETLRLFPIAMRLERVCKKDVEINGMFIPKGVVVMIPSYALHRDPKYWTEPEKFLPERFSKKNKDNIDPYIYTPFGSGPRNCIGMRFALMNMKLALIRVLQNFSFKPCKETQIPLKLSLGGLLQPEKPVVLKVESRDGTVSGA
Luciferin 4-monooxygenase, sequence (P08659 whole entry): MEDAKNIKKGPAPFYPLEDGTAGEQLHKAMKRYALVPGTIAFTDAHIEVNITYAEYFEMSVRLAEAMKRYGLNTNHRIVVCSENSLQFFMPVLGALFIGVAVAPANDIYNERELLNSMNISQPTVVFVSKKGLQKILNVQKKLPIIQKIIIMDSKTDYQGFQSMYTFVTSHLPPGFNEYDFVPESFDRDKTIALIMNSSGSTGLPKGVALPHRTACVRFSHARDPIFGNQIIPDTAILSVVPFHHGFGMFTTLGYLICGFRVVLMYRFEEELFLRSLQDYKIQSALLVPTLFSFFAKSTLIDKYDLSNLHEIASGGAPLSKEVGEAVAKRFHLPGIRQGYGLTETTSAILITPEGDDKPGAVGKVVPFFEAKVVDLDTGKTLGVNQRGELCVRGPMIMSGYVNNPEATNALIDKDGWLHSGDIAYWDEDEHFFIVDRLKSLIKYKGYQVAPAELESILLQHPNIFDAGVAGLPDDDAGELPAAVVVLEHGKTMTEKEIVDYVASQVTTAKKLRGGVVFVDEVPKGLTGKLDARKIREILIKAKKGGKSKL
Cytochrome P450 2C9, sequence (P11712 whole entry): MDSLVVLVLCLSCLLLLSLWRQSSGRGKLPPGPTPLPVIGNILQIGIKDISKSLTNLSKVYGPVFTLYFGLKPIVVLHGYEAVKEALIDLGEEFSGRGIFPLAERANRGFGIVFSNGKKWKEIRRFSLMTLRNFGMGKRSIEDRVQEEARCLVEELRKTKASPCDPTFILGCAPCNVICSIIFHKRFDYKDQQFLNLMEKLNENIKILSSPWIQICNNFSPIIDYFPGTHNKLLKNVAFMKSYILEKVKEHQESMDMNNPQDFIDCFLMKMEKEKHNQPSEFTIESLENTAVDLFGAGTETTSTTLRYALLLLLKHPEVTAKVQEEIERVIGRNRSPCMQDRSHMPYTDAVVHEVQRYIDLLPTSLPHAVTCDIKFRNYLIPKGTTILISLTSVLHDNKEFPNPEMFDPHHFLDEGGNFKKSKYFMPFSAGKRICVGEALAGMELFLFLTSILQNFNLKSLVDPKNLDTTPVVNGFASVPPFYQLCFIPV

Take `Nc1nc(-c2ccc3ccccc3c2)cc(-c2cc(-c3ccc4ccccc4c3)nc(N)n2)n1`: the AC50 at Cytochrome P450 1A2 is 0.501 µM (inconclusive).

For `O=C(Nc1cccnc1)C1(F)C(F)(F)C(F)(F)C(F)(F)C(F)(F)C1(F)F`, the concentration at half-maximal activity (AC50) with INS1 is 3.18 µM (active). With `CC(C)[C@@H](CO)NC(=O)c1ccc2c3n(nc2c1)-c1ccccc1CO3`, the EC50 in experiment [1] was 2.69 µM (active); in experiment [2], 6.1 µM (active). Regarding `O=C(CCCN1C(=O)/C(=C/c2ccccc2)SC1=S)NCCCn1ccnc1`, the AC50 in experiment [3] is 76.3 µM (active); with INS1 it was 21.2 µM (active).

Consider `O=C(NC(=S)Nc1ccc(N2CCCCC2)c(Cl)c1)c1ccc2c(c1)OCCO2`, for which the AC50 in experiment [3] is 2.54 µM (active). Regarding `O=C1c2ccccc2C(=O)c2c(NC3CCCCC3)ccc(Nc3ccc(S(=O)(=O)O)cc3)c21`, the AC50 at Cytochrome P450 1A2 was 1.26 µM (inconclusive).

Take `Cc1cc(OCCCCCN2CCCC2)ccc1Cl`: the half-inhibitory concentration (IC50) in experiment [4] is 131 µM (active). Besides, the EC50 was 1.23 µM (active) in experiment [5] and 19.2 µM (active) in experiment [6]. `O=C(Nc1ccccc1)/C(=C\c1ccc2c(c1)OCO2)NC(=O)c1ccco1`: the AC50 was 20 µM (inconclusive) at Cytochrome P450 3A4, 25.1 µM (inconclusive) at Cytochrome P450 1A2 and 22.4 µM (inconclusive) on Cytochrome P450 2C19.

In the case of `O=C(CNCc1ccco1)Nc1cccc(S(=O)(=O)N2CCCCC2)c1`, the IC50 in experiment [4] is 169 µM (active). For the compound `c1cc(N2CCCC3(CCNCC3)C2)ccn1`, the AC50 on Cytochrome P450 2C9 is 25.1 µM (inconclusive); on Cytochrome P450 3A4, 12.6 µM (inconclusive); on Cytochrome P450 2C19 it was 25.1 µM (inconclusive). Turning to `CCO[C@H]1OC(C(=O)N2CCN(Cc3ccc4c(c3)OCO4)CC2)=C[C@@H](c2csc3ccccc23)[C@@H]1CCCO`, in the experiment with INS1, the AC50 was 6.83 µM (active).

`C[C@@H](C(=O)Nc1ccc2ccccc2c1)[C@@H]1C[C@@]1(C)[C@@H](N)c1ccccc1`: the AC50 on Cytochrome P450 2C9 is 25.1 µM (inconclusive). For the compound `O=C(Nc1ccc(Cl)cc1)OCc1cc(-c2ccccc2Cl)on1`, the AC50 on Cytochrome P450 2C9 was 1.12 µM (inconclusive). Also, the EC50 in [1] and in [2] was > 112 µM (not active) throughout.

Consider `Cc1ccc(OCCCC(=O)N2CCOCC2)cc1`, for which the AC50 on Cytochrome P450 2C9 is 39.8 µM (inconclusive); on Cytochrome P450 3A4 it was 25.1 µM (inconclusive); on Cytochrome P450 1A2 it was 25.1 µM (inconclusive). As for `Cc1cc(O)nc2ccc(S(=O)(=O)NC3CCCCC3)cc12`, the EC50 is 3.55 µM (active) in [1] and > 112 µM (not active) in experiment [2].

Take `CSc1nc(C)c2c(n1)N(c1ccc(C(C)C)cc1)CC2`: the AC50 on Cytochrome P450 2C9 was 11.2 µM (inconclusive); on Cytochrome P450 2C19 it was 17.8 µM (inconclusive).

In the case of `CNC[C@H](CC1CCCCC1)NC[C@H](CO)NCCc1cccc(C(F)(F)F)c1`, in experiment [3], the AC50 is 7.61 µM (active). In addition, the CC50 in experiment [7] is 12.5 µM (active). Turning to `O=C(Cn1cnc2c(cnn2-c2ccccc2)c1=O)OCc1ccccc1`, the EC50 in experiment [1] and in experiment [2] was > 112 µM (not active) in each case. In the case of `CCOC(=O)c1c(-c2ccc(OC)cc2)csc1NC(=O)CCN1C(=O)c2ccccc2C1=O`, the concentration at half-maximal activity (AC50) on Cytochrome P450 3A4 was 4.47 µM (inconclusive); at Cytochrome P450 1A2 it was 12.6 µM (inconclusive). Take `COc1ccc(-c2nc3ccccc3c(=O)n2N)cc1`: the figures for the AC50 at Cytochrome P450 2C9 and at Cytochrome P450 2C19 were 2.82 µM (inconclusive) and 0.631 µM (inconclusive), respectively.

In the case of `CCCC/C=C/C(NC(=O)c1ccc(-c2ccccc2)cc1)c1ccccc1` (stereo not drawn), at Cytochrome P450 1A2, the half-maximal activity concentration (AC50) was 15.8 µM (inconclusive). Regarding `CCOC(=O)c1c(C)oc2cc(Br)c(OC(=O)N3CCOCC3)cc12`, the concentration giving a half-maximal response (EC50) in [1] and in experiment [2] was > 112 µM (not active) each time.

Turning to `CNC(=O)[C@H](C)[C@@H]1C[C@@]1(C)[C@@H](NC(=O)OCc1ccccc1)c1ccccc1`, the concentration at half-maximal activity (AC50) on Cytochrome P450 1A2 was 20 µM (inconclusive). As to `Cc1ccc(CS(=O)(=O)Cc2ccc(C(=O)NCC3CCCO3)o2)cc1` (stereo not drawn), the AC50 was 39.8 µM (inconclusive) at Cytochrome P450 2C9, 15.8 µM (inconclusive) on Cytochrome P450 3A4 and 31.6 µM (inconclusive) on Cytochrome P450 2C19.

As for `COC(=O)c1ccc(/C=C/c2nc(O)c3ccccc3n2)cc1`, the values for the EC50 in [1] and in experiment [2] were 7.02 µM (active) and 17.7 µM (active), respectively.

As to `O=C(NC(=S)Nc1cccc(Cl)c1N1CCCC1)c1ccc(-c2cccc([N+](=O)[O-])c2)o1`, the results for the AC50 on Cytochrome P450 2C9 and on Cytochrome P450 1A2 were 5.01 µM (inconclusive) and 25.1 µM (inconclusive), respectively. In the case of `Cc1ccccc1NCc1ccc([N+](=O)[O-])s1`, in [3], the AC50 was 11 µM (active). With `CCOc1cc(S(=O)(=O)Nc2ccc(CC)cc2)ccc1Cl`, in experiment [3], the AC50 was 6.17 µM (active). `COc1ccc(Cc2nnc(NC(=O)CSc3ccc(C)cc3)s2)cc1OC`: the results for the AC50 on Cytochrome P450 2C9 and at Cytochrome P450 2C19 were 2.51 µM (inconclusive) and 0.891 µM (inconclusive), respectively. Regarding `O=C(CCSc1ccccc1)N1CCN(c2ccccc2)CC1`, the EC50 is 15.5 µM (active) in experiment [8], 28.4 µM (active) in the experiment with H4 and > 120 µM (not active) in experiment [9]. With `O=C1NC(=O)C(=Cc2ccco2)C(=O)N1`, the IC50 in experiment [4] is 141 µM (active). As for `COc1ccc2cc(C(=O)N/N=C/c3sc4ccccc4c3O)ccc2c1`, the AC50 was 1.61 µM (active) in experiment [3] and 3.02 µM (active) in the experiment with INS1. Turning to `C(=N\N1CCOCC1)/c1nc(-c2ccccc2)n2ccccc12`, the IC50 in experiment [4] is 22.3 µM (active). For the compound `CCOC(=O)C(/C=N/c1ccc(C(O)(C(=O)OCC)C(F)(F)F)cc1C)=C(/O)OCC` (stereo not drawn), the AC50 with INS1 is 6.01 µM (active). Regarding `CCNC(=O)[C@H]1O[C@@H](n2cnc3c(N)ncnc32)[C@H](O)[C@@H]1O` [NECA], in [1], the EC50 is < 0.088 µM (active). Take `O=c1oc(-c2ccc(O)c(O)c2)cc2cccc(O)c12` [THUNBERGINOL A]: the IC50 in experiment [4] was 19.7 µM (active).
